Data: ChEMBL document CHEMBL3286342, “Design, synthesis, and structure-activity relationships of pyridoquinazolinecarboxamides as RNA polymerase I inhibitors” (J Med Chem, 2014)
The source made the active and inactive calls. The rule behind the calls is not given here.

Tested on: U2OS
Conditions: Homo sapiens, 0.1 to 1 uM
Description: Inhibition of RNA polymerase-1 in human U2OS cells assessed as effect on nucleolin protein expression at 0.1 to 1 uM after 3 hrs by Western blot analysis

| SMILES | inhibition |
| --- | --- |
| O=C(NCCN1CCCCC1)c1cccn2c(=O)c3cc4ccccc4cc3nc12 | inactive |
| CN(C)CCNC(=O)c1cccn2c(=O)c3ccccc3nc12 | inactive |
| CC(CN(C)C)NC(=O)c1cccn2c(=O)c3cc4ccccc4cc3nc12 (stereo not given) | inactive |
| CN(C)CCCCNC(=O)c1cccn2c(=O)c3cc4ccccc4cc3nc12 | inactive |
| CN(C)CCN(C)C(=O)c1cccn2c(=O)c3cc4ccccc4cc3nc12 | inactive |
| O=C(NCCN1CCOCC1)c1cccn2c(=O)c3cc4ccccc4cc3nc12 | inactive |
| CN(C)CCNC(=O)c1cccn2c(=O)c3cc4ccccc4cc3nc12 | inactive |

Tested on: not listed separately
Assay: Inhibition of RNA polymerase-1 in human U2OS cells assessed as decrease in nucleolar localization of nucleolin after 3 hrs by epifluorescence microscopic analysis
Assay type: cell-based
Conditions: not given

| SMILES | IC50 [µM] |
| --- | --- |
| CCN(CC)C1CCN(C(=O)c2cccn3c(=O)c4cc5ccccc5cc4nc23)C1 (stereo not given) | 10.6 |
| CN(C)CCOC(=O)c1cccn2c(=O)c3cc4ccccc4cc3nc12 | 12.3 |
| CN(C)CCNC(=O)c1cccn2c(=O)c3ccccc3nc12 | 3.17 |
| CN(C)CCN(C)C(=O)c1cccn2c(=O)c3cc4ccccc4cc3nc12 | > 100 |
| CCN(CC)CCNC(=O)c1cccn2c(=O)c3ccccc3nc12 | 3.28 |
| CN(C)CCNC(=O)c1cccn2c(=O)c3cc4ccccc4cc3nc12 | 0.07 |

Target: DNA-directed RNA polymerase I subunit RPA1 (Homo sapiens, UniProt O95602)
Sequence (O95602 whole entry): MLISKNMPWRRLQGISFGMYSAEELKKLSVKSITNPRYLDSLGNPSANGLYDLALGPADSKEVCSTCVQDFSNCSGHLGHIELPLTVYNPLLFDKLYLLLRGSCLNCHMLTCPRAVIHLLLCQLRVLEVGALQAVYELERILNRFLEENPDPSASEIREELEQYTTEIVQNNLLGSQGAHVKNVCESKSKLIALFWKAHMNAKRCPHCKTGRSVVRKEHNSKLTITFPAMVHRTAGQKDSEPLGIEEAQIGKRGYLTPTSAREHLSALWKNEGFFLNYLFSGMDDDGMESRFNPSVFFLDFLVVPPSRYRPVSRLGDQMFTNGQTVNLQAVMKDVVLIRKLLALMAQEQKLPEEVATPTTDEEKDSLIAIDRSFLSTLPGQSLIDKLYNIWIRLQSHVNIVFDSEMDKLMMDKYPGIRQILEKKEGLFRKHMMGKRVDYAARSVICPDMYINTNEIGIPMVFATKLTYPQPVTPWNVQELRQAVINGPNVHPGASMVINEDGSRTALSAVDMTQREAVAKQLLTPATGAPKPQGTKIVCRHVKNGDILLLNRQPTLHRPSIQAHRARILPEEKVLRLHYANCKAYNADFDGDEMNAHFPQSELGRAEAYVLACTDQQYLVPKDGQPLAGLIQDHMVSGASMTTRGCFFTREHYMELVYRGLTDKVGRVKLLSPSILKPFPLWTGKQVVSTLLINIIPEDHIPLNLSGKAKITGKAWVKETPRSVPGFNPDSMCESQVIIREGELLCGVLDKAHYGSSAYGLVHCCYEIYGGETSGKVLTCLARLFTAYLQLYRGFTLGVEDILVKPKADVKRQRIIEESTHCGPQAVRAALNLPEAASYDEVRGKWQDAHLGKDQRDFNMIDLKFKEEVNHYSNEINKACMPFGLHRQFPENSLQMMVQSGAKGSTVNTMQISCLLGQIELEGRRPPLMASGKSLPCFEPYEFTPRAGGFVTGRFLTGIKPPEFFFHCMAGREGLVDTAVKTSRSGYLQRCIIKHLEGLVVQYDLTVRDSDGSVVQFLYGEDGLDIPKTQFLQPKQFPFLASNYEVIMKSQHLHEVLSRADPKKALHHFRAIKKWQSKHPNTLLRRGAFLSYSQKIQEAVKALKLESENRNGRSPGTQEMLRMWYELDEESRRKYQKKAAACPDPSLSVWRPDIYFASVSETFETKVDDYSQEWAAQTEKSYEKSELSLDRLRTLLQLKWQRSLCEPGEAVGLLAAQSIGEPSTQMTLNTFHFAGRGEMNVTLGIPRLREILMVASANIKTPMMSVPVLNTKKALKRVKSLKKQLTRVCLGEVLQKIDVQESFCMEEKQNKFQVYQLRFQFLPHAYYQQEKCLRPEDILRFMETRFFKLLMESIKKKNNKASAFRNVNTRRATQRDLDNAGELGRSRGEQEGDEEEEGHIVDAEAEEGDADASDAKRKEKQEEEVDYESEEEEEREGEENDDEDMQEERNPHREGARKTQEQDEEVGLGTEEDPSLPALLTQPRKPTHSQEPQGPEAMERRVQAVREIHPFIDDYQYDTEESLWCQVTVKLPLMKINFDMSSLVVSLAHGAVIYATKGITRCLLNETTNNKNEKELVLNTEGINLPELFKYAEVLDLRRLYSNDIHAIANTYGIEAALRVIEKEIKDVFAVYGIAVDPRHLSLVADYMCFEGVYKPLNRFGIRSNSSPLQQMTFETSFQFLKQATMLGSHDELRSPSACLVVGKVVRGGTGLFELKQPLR
Conditions: u2os
Description: Induction of RNA polymerase-1 RPA194 subunit degradation in human U2OS cells after 3 hrs by epifluorescence microscopic analysis

| SMILES | IC50 [µM] |
| --- | --- |
| CCN(CC)C1CCN(C(=O)c2cccn3c(=O)c4cc5ccccc5cc4nc23)C1 (stereo not given) | 31.8 |
| CN(C)CCOC(=O)c1cccn2c(=O)c3cc4ccccc4cc3nc12 | 50.9 |
| CN(C)CCNC(=O)c1cccn2c(=O)c3ccccc3nc12 | 2.17 |
| CCN(CC)CCNC(=O)c1cccn2c(=O)c3ccccc3nc12 | 1.35 |

Tested on: U2OS
Assay: Cytotoxicity against human U2OS cells assessed as loss of cell viability at 0.5 to 5 uM after 48 hrs by WST-1 assay
Assay type: functional, cell-based
Conditions: not given

| SMILES | Activity |
| --- | --- |
| O=C(NCCN1CCCCC1)c1cccn2c(=O)c3cc4ccccc4cc3nc12 | Active |
| CN(C)CCNC(=O)c1cccn2c(=O)c3ccccc3nc12 | inactive |
| CN(C)CCCCNC(=O)c1cccn2c(=O)c3cc4ccccc4cc3nc12 | inactive |
| O=C(NCCN1CCCC1)c1cccn2c(=O)c3cc4ccccc4cc3nc12 | Active |
| CN(C)CCN(C)C(=O)c1cccn2c(=O)c3cc4ccccc4cc3nc12 | inactive |
| O=C(NCCN1CCOCC1)c1cccn2c(=O)c3cc4ccccc4cc3nc12 | inactive |
| CN(C)CCNC(=O)c1cccn2c(=O)c3cc4ccccc4cc3nc12 | Active |
| CC(CNC(=O)c1cccn2c(=O)c3cc4ccccc4cc3nc12)N(C)C (stereo not given) | Active |

Tested on: U2OS
Conditions: Homo sapiens, 10 uM
Description: Inhibition of RNA polymerase-1 in human U2OS cells assessed as effect on nucleolin protein expression at 10 uM after 3 hrs by Western blot analysis

| SMILES | inhibition |
| --- | --- |
| O=C(NCCN1CCCCC1)c1cccn2c(=O)c3cc4ccccc4cc3nc12 | Active |
| CN(C)CCNC(=O)c1cccn2c(=O)c3ccccc3nc12 | Active |
| CC(CN(C)C)NC(=O)c1cccn2c(=O)c3cc4ccccc4cc3nc12 (stereo not given) | Active |
| CN(C)CCCCNC(=O)c1cccn2c(=O)c3cc4ccccc4cc3nc12 | Active |
| CN(C)CCN(C)C(=O)c1cccn2c(=O)c3cc4ccccc4cc3nc12 | Active |
| O=C(NCCN1CCOCC1)c1cccn2c(=O)c3cc4ccccc4cc3nc12 | Active |
| CN(C)CCNC(=O)c1cccn2c(=O)c3cc4ccccc4cc3nc12 | Active |

Tested on: Liver microsome
Assay: Half life in human liver microsomes at 1 uM preincubated for 5 mins followed by beta-NADPH addition
Assay type: ADME
Conditions: not given

| SMILES | t1/2 [min] |
| --- | --- |
| CCN(CC)CCNC(=O)c1cccn2c(=O)c3cc4ccccc4cc3nc12 | 21 |
| O=C(NCCN1CCCCC1)c1cccn2c(=O)c3cc4ccccc4cc3nc12 | 25 |
| CC(CN(C)C)NC(=O)c1cccn2c(=O)c3cc4ccccc4cc3nc12 (stereo not given) | 54 |
| COCCN(C)CCNC(=O)c1cccn2c(=O)c3cc4ccccc4cc3nc12 | 14 |
| O=C(NCCN1CCCC1)c1cccn2c(=O)c3cc4ccccc4cc3nc12 | 33 |
| CN1CCN(CCNC(=O)c2cccn3c(=O)c4cc5ccccc5cc4nc23)CC1 | 43 |
| CN(C)CCNC(=O)c1cccn2c(=O)c3cc4ccccc4cc3nc12 | 57 |
| CC(CNC(=O)c1cccn2c(=O)c3cc4ccccc4cc3nc12)N(C)C (stereo not given) | 43 |
